US7989447B2, “1,5 and 3,6-substituted indole compounds having NOS inhibitory activity” (NeurAxon, Inc., priority 2006, dated 2011)

Columns and labels:
Assay type in all cases: biochemical
[1] = target: human neuronal constitutive NOS (nNOS) (Homo sapiens, UniProt P29475); assay: nNOS (Human) enzyme assay, radiometric conversion of [3H]L-arginine to [3H]L-citrulline; conditions: for IC50: recombinant human enzyme, 37° C., 45 min, read-out: Human nNOS; for Ratio e/n: human eNOS / human nNOS
Experimental: To measure enzyme inhibition, a 15 μL solution of a test substance was added to the enzyme assay solution, followed by a pre-incubation time of 15 min at RT. […] The total volume of the reaction mixture was 150 μL in every well. The reactions were carried out at 37° C. for 45 min. The reaction was stopped by adding 20 μL of ice-cold buffer containing 100 mM HEPES, 3 mM EGTA, 3 mM EDTA, pH=5.5. [^3H]L-citrulline was separated by DOWEX (ion-exchange resin DOWEX 50 W X 8-400, SIGMA) and the DOWEX was removed by spinning at 12,000 g for 10 min in the centrifuge. […] All assays were performed at least in duplicate. Standard deviations were 10% or less.

[2] = target: human endothelial constitutive NOS (eNOS) (Homo sapiens, UniProt P29474); assay: eNOS (Human) enzyme assay, radiometric conversion of [3H]L-arginine to [3H]L-citrulline; conditions: recombinant human enzyme, 37° C., 45 min; read-out: Human eNOS
Experimental: (§1) Recombinant human inducible NOS (iNOS), human endothelial constitutive NOS (eNOS) or human neuronal constitutive NOS(nNOS) were produced in Baculovirus-infected Sf9 cells (ALEXIS). In a radiometric method, NO synthase activity was determined by measuring the conversion of [^3H]L-arginine to [^3H]L-citrulline. To measure iNOS, 10 μL of enzyme was added to 100 μL of 100 mM HEPES, pH=7,4, containing 1 mM CaCl2, 1 mM EDTA, 1 mM dithiotheitol, 1 μM FMN, 1 μM FAD, 10 μM tetrahydrobiopterin, 120 μM NADPH, and 100 nM CaM. To measure eNOS or nNOS, 10 μL of enzyme was added to 100 μL of 40 mM HEPES, pH=7.4, containing 2.4 mM CaCl2, 1 mM MgCl2, 1 mg/mL BSA, 1 mM EDTA, 1 mM dithiothreitol, 1 μM FMN, 1 μM FAD, 10 μM tetrahydrobiopterin, 1 mM NADPH, and 1.2 μM CaM.
(§2) To measure enzyme inhibition, a 15 μL solution of a test substance was added to the enzyme assay solution, followed by a pre-incubation time of 15 min at RT. The reaction was initiated by addition of 20 μL L-arginine containing 0.25 μCi of [^3H]arginine/mL and 24 μM L-arginine. The total volume of the reaction mixture was 150 μL in every well. The reactions were carried out at 37° C. for 45 min. The reaction was stopped by adding 20 μL of ice-cold buffer containing 100 mM HEPES, 3 mM EGTA, 3 mM EDTA, pH=5.5. [^3H]L-citrulline was separated by DOWEX (ion-exchange resin DOWEX 50 W X 8-400, SIGMA) and the DOWEX was removed by spinning at 12,000 g for 10 min in the centrifuge. An 70 μL aliquot of the supernatant was added to 100 μL of scintillation fluid and the samples were counted in a liquid scintillation counter (1450 Microbeta Jet, Wallac). […] All assays were performed at least in duplicate.

[3] = target: human inducible NOS (iNOS) (Homo sapiens, UniProt P35228); assay: iNOS (Human) enzyme assay, radiometric conversion of [3H]L-arginine to [3H]L-citrulline; conditions: recombinant human enzyme, 37° C., 45 min
Experimental: as §1, §2

Chain of human neuronal constitutive NOS (nNOS) (P29475 whole entry): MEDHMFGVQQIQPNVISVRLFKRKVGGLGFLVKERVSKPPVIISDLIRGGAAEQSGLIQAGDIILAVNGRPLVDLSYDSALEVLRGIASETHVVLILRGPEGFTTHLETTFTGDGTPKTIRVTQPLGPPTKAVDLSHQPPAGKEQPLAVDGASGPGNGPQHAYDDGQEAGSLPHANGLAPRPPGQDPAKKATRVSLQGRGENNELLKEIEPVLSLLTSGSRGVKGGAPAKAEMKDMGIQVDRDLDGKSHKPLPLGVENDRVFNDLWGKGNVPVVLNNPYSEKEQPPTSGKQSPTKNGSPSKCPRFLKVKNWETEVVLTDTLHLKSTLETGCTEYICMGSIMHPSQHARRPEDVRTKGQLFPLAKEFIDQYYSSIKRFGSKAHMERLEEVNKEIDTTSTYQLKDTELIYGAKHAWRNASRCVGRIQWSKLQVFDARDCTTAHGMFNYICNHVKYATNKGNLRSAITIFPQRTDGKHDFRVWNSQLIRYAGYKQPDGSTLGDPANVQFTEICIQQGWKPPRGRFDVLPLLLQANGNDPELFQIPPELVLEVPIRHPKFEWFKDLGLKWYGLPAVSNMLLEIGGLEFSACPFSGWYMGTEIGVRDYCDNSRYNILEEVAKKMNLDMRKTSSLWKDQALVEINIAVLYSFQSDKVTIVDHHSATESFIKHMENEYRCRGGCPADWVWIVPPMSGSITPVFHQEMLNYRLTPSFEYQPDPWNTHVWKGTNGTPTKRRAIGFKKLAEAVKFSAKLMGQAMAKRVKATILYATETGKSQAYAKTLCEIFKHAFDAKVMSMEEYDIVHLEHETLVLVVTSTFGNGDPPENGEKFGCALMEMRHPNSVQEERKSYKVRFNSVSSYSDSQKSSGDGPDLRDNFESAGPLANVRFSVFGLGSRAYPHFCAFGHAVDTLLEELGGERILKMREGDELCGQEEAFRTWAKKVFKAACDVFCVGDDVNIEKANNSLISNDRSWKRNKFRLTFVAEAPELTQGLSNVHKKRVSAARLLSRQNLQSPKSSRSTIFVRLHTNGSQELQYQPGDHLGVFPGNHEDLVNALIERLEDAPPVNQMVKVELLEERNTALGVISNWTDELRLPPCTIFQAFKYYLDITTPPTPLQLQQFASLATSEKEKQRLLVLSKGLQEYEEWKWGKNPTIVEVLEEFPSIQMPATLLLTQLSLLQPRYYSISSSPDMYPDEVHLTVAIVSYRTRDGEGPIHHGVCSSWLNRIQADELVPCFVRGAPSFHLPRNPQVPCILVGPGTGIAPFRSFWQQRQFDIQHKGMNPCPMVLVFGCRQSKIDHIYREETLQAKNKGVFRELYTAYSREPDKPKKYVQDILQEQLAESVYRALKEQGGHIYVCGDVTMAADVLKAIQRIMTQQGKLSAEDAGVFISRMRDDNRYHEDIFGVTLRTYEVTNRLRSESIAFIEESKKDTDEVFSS

Which results are given for `CN1CCCC1CCn1c(-c2ccc([N+](=O)[O-])cc2)cc2cc(NC(=N)c3cccs3)ccc21` (stereo not shown) [Compound 21, N-(1-(2-(1-methylpyrrolidin-2-yl)ethyl)-2-(4-nitrophenyl)-1H-indol-5-yl)thiophene-2-carboximidamide]?
IC50 [1]: 1.28 µM; IC50 [2]: 13.2 µM; IC50 [3]: 52 µM

With `Cc1cc2cc(NC(=N)c3cccs3)ccc2n1CCN(C)C` [Compound 25, N-(1-(2-(dimethylamino)ethyl)-2-methyl-1H-indol-5-yl)thiophene-2-carboximidamide] as the molecule, how does the Ratio e/n [1] read?
Its Ratio e/n is 3.88.

What about the IC50 [1] of the same molecule?
The IC50 was 0.82 µM.

And the IC50 [2]?
Its IC50 is 3.18 µM.

Which results are given for `CN1CCCC1CCn1ccc2cc(NC(=N)c3cccs3)ccc21` (single isomer, unassigned) [(+)−57]?
IC50 [2]: 3.37 µM; IC50 [3]: 22 µM

What does the source list for `Cc1cc2cc(NC(=N)c3cccs3)ccc2n1CCC1CCCN1C` (stereo not shown) [Compound 32, N-(2-methyl-1-(2-(1-methylpyrrolidin-2-yl)ethyl)-1H-indol-5-yl)thiophene-2-carboximidamide]?
Ratio e/n [1]: 20.2; IC50 [1]: 0.14 µM; IC50 [2]: 2.87 µM

Which Ratio e/n [1] does the source give for `CN1CCCCC1CCn1ccc2cc(NC(=N)c3cccs3)ccc21` (stereo not shown) [Compound 62, N-(1-(2-(1-methylpiperidin-2-yl)ethyl)-1H-indol-5-yl)thiophene-2-carboximidamide] here?
The Ratio e/n was 68.01.

And the IC50 [1]?
The IC50 was 0.09 µM.

And the IC50 [2]?
Its IC50 is 6.4 µM.

What does the source list for `N=C(Nc1ccc2c(c1)cc(-c1ccc([N+](=O)[O-])cc1)n2CCN1CCCCC1)c1cccs1` [Compound 18, N-(2-(4-nitrophenyl)-1-(2-(piperidin-1-yl)ethyl)-1H-indol-5-yl)thiophene-2-carboximidamide]?
IC50 [1]: 0.41 µM; IC50 [2]: 19 µM

How did the IC50 [2] turn out when `CN1CCCC(n2ccc3cc(NC(=N)c4ccco4)ccc32)CC1` (stereo not shown) [Compound 54, N-(1-(1-methylazepan-4-yl)-1H-indol-5-yl)furan-2-carboximidamide] was run?
Its IC50 is 38.5 µM.

What about the IC50 [3] of the same molecule?
The IC50 was 49 µM.

With `CN1CCC(c2c[nH]c3cc(NC(=N)c4cccs4)ccc23)C1` (stereo not shown) [Compound 117, N-(3-(1-methylpyrrolidin-3-yl)-1H-indol-6-yl) thiophene-2-carboximidamide] as the molecule, how does the Ratio e/n [1] read?
The Ratio e/n was 35.45.

What about the IC50 [1] of the same molecule?
Its IC50 is 0.2 µM.

What about the IC50 [2] of the same molecule?
Its IC50 is 7.09 µM.

How did the Ratio e/n [1] turn out when `N=C(Nc1ccc2c(ccn2CCN2CCCCC2)c1)c1cccs1` [Compound 96, N-(1-(2-(piperidin-1-yl)ethyl)-1H-indol-5-yl)thiophene-2-carboximidamide] was run?
Its Ratio e/n is 53.80.

And the IC50 [1]?
Its IC50 is 0.17 µM.

And the IC50 [2]?
The IC50 was 9.2 µM.

`N=C(Nc1ccc2c(ccn2-c2ccc(N)nc2)c1)c1cccs1` [Compound 77, N-(1-(6-aminopyridin-3-yl)-1H-indol-5-yl)thiophene-2-carboximidamide] was tested. Which Ratio e/n [1] did it give?
Its Ratio e/n is 5.54.

And the IC50 [1]?
The IC50 was 0.55 µM.

And the IC50 [2]?
The IC50 was 3.08 µM.

What does the source list for `N=C(Nc1ccc2c(ccn2CCCNC2CC2)c1)c1cccs1` [Compound 46, N-(1-(3-(cyclopropylamino)propyl)-1H-indol-5-yl)thiophene-2-carboximidamide]?
Ratio e/n [1]: 32.53; IC50 [1]: 0.26 µM; IC50 [2]: 8.72 µM

How did the Ratio e/n [1] turn out when `CN1CCCC1CCn1c(Cc2ccccc2)cc2cc(NC(=N)c3cccs3)ccc21` (stereo not shown) [Compound 6, N-(2-benzyl-1-(2-(1-methylpyrrolidin-2-yl)ethyl)-1H-indol-5-yl)thiophene-2-carboximidamide] was run?
Its Ratio e/n is 41.57.

What about the IC50 [1] of the same molecule?
The IC50 was 0.19 µM.

What about the IC50 [2] of the same molecule?
The IC50 was 7.9 µM.

For `N=C(Nc1ccc2c(ccn2CCCN2CCOCC2)c1)c1cccs1` [Compound 40, N-(1-(3-morpholinopropyl)-1H-indol-5-yl)thiophene-2-carboximidamide], which Ratio e/n [1] is on record?
Its Ratio e/n is 9.09.

What about the IC50 [1] of the same molecule?
The IC50 was 0.66 µM.

What about the IC50 [2] of the same molecule?
The IC50 was 6 µM.

For `CN1CCCC(n2ccc3cc(NC(=N)c4ccco4)ccc32)CC1` (single isomer, unassigned) [(+)−55], which IC50 [2] is on record?
The IC50 was 24.5 µM.

What about the IC50 [3] of the same molecule?
The IC50 was 10 µM.

For `CN(C)CCn1ccc2cc(NC(=N)c3cccs3)ccc21` [Compound 93, N-(1-(2-(dimethylamino)ethyl)-1H-indol-5-yl)thiophene-2-carboximidamide], which Ratio e/n [1] is on record?
The Ratio e/n was 21.3.

And the IC50 [1]?
The IC50 was 0.17 µM.

What about the IC50 [2] of the same molecule?
The IC50 was 3.7 µM.

For `CNC1CCC(c2c[nH]c3cc(NC(=N)c4cccs4)ccc23)CC1` (stereo not shown) [Compound 123, N-(3-(4-(methylamino)cyclohexyl)-1H-indol-6-yl)thiophene-2-carboximidamide], which Ratio e/n [1] is on record?
Its Ratio e/n is 28.96.

What about the IC50 [1] of the same molecule?
Its IC50 is 0.32 µM.

And the IC50 [2]?
The IC50 was 9.47 µM.

Which results are given for `CN1CCC[C@H]1Cn1ccc2cc(NC(=N)c3cccs3)ccc21` [Compound 104, (S)—N-(1-((1-methylpyrrolidin-2-yl)methyl)-1H-indol-5-yl)thiophene-2-carboximidamide]?
Ratio e/n [1]: 30.2; IC50 [1]: 0.11 µM; IC50 [2]: 3.35 µM

Which Ratio e/n [1] does the source give for `Cc1cc2cc(NC(=N)c3cccs3)ccc2n1CCN1CCCC1` [Compound 28, N-(2-methyl-1-(2-(pyrrolidin-1-yl)ethyl)-1H-indol-5-yl)thiophene-2-carboximidamide] here?
The Ratio e/n was 7.41.

What about the IC50 [1] of the same molecule?
The IC50 was 0.2 µM.

What about the IC50 [2] of the same molecule?
Its IC50 is 1.49 µM.

Which IC50 [2] does the source give for `CN1CCCC1CCn1ccc2cc(NC(=N)c3cccs3)ccc21` (single isomer, unassigned) [(−)−57] here?
The IC50 was 1.92 µM.

What about the IC50 [3] of the same molecule?
Its IC50 is 1.7 µM.

How did the IC50 [2] turn out when `CN1CCCC(n2ccc3cc(NC(=N)c4ccco4)ccc32)CC1` (single isomer, unassigned) [(−)−55] was run?
Its IC50 is 28.5 µM.

And the IC50 [3]?
Its IC50 is 46 µM.

Which results are given for `N=C(Nc1ccc2c(ccn2C2CCOCC2)c1)c1cccs1` [Compound 90, N-(1-(tetrahydro-2H-pyran-4-yl)-1H-indol-5-yl)thiophene-2-carboximidamide]?
Ratio e/n [1]: 9.34; IC50 [1]: 1.04 µM; IC50 [2]: 9.72 µM

Which results are given for `N=C(Nc1ccc2c(ccn2CCCNC23CC4CC(CC(C4)C2)C3)c1)c1cccs1` [Compound 42, N-(1-(3-adamantanaminopropyl)-1H-indol-5-yl)thiophene-2-carboximidamide]?
Ratio e/n [1]: 8.67; IC50 [1]: 0.36 µM; IC50 [2]: 3.15 µM

Which Ratio e/n [1] does the source give for `CCCN[C@H]1CC[C@H](c2c[nH]c3cc(NC(=N)c4cccs4)ccc32)CC1` [Compound 138, N-(3-((1r,4r)-4-(propylamino)cyclohexyl)-1H-indol-6-yl)thiophene-2-carboximidamide] here?
Its Ratio e/n is 15.83.

What about the IC50 [1] of the same molecule?
The IC50 was 0.72 µM.

What about the IC50 [2] of the same molecule?
Its IC50 is 11.4 µM.

With `CNC1CC=C(c2c[nH]c3cc(NC(=N)c4cccs4)ccc23)CC1` (stereo not shown) [Compound 125, N-(3-(4-(methylamino)cyclohex-1-enyl)-1H-indol-6-yl)thiophene-2-carboximidamide] as the molecule, how does the Ratio e/n [1] read?
Its Ratio e/n is 46.4.

And the IC50 [1]?
Its IC50 is 0.45 µM.

What about the IC50 [2] of the same molecule?
Its IC50 is 21 µM.

`CN1CCCC1CCn1ccc2cc(NC(=N)c3cccs3)ccc21` (stereo not shown) [Compound 56, N-(1-(2-(1-methylpyrrolidin-2-yl)ethyl)-1H-indol-5-yl)thiophene-2-carboximidamide] was tested. Which IC50 [2] did it give?
The IC50 was 4.49 µM.

`CN1CCCC1CCn1ccc2cc(NC(=N)c3ccco3)ccc21` (stereo not shown) [Compound 53, N-(1-(2-(1-methylpyrrolidin-2-yl)ethyl)-1H-indol-5-yl)furan-2-carboximidamide] was tested. Which IC50 [2] did it give?
Its IC50 is 13.9 µM.

How did the Ratio e/n [1] turn out when `CN1CCCC1CCn1ccc2cc(CNC(=N)c3cccs3)ccc21` (stereo not shown) [Compound 37, N-((1-(2-(1-methylpyrrolidin-2-yl)ethyl)-1H-indol-5-yl)methyl)thiophene-2-carboximidamide] was run?
Its Ratio e/n is 1.24.

What about the IC50 [1] of the same molecule?
The IC50 was 73 µM.

And the IC50 [2]?
The IC50 was 91 µM.

`N=C(Nc1ccc2c(C3=CN4CCC3CC4)c[nH]c2c1)c1cccs1` [Compound 111, N-(3-(1-azabicyclo[2.2.2]oct-2-en-3-yl)-1H-indol-6-yl)thiophene-2-carboximidamide] was tested. Which Ratio e/n [1] did it give?
Its Ratio e/n is 30.19.

And the IC50 [1]?
The IC50 was 1.53 µM.

And the IC50 [2]?
Its IC50 is 46.2 µM.

`N=C(Nc1ccc2c(ccn2-c2cccnc2)c1)c1cccs1` [Compound 74, N-(1-(pyridin-3-yl)-1H-indol-5-yl)thiophene-2-carboximidamide] was tested. Which Ratio e/n [1] did it give?
The Ratio e/n was 6.74.

And the IC50 [1]?
Its IC50 is 0.38 µM.

And the IC50 [2]?
The IC50 was 2.57 µM.

Which Ratio e/n [1] does the source give for `CC(C)NC1CCC(c2c[nH]c3cc(NC(=N)c4cccs4)ccc23)CC1` (stereo not shown) [Compound 142] here?
The Ratio e/n was 23.6.

And the IC50 [1]?
The IC50 was 0.29 µM.

And the IC50 [2]?
The IC50 was 6.99 µM.

`CN(C)CCCn1ccc2cc(NC(=N)c3cccs3)ccc21` [Compound 48, N-(1-(3-(dimethylamino)propyl)-1H-indol-5-yl)thiophene-2-carboximidamide] was tested. Which IC50 [2] did it give?
The IC50 was 12.4 µM.

With `CCN1CCCC1CNCCCn1ccc2cc(NC(=N)c3cccs3)ccc21` (stereo not shown) [Compound 44, N-(1-(3-((1-ethylpyrrolidin-2-yl)methylamino)propyl)-1H-indol-5-yl)thiophene-2-carboximidamide] as the molecule, how does the IC50 [2] read?
The IC50 was 6.33 µM.
